Reference: US20260317304A1, “TEAD INHIBITORS AND METHODS OF USE” (Sporos BioDiscovery, Inc., priority 2022, published 2026)

Tests used:
TEAD1 = TEAD1 (Homo sapiens, UniProt P28347); assay: TEAD thermal shift assay (TSA); type: binding
Description: (§1) Thermal shift assay (TSA) is a biophysical method to evaluate stability of proteins with change in temperature. The assay measures thermal denaturation temperature in varying conditions such as different drug concentration. For this example, fluorogenic dye was used that bind to unfolded proteins. SYPRO Orange binds non-specifically to hydrophobic surfaces, and water strongly quenches its fluorescence. When the protein unfolds, the exposed hydrophobic surfaces bind the dye, resulting in an increase in fluorescence by excluding water. Detergent micelles also bind the dye and increase background noise dramatically. Binding of small molecules to proteins leads to a stabilization against to thermal denaturation with the degree of thermal stabilization proportional to the strength of binding.
(§2) The study described in this example investigated the change in melting temperature (ΔTm) of TEAD isoforms 1-4 when treated with TEAD inhibitors.
(§3) Tris-HCL was dissolved in 5 mL of Cell culture grade water and allowed to dissolve completely. The pH was adjusted to 8 using NaOH. Additional assay buffer components were added in the order listed above. The buffer was mixed slowly.
(§4) Assay buffer was prepared according to the procedures outlined above and dispensed into test wells. Spyro orange was added to a concentration of 5× in the assay buffer, followed by test compound stock solution which was added to a concentration of 10 μM or 30 μM in the assay buffer.
(§5) The melt cycle was performed in Bio-RAD PCR instrument from 20-95° C. with ramp rate of 1° C./min.

TEAD2 = TEAD2 (Homo sapiens, UniProt Q15562); assay: TEAD thermal shift assay (TSA); type: binding
Chain of TEAD2 (Q15562 whole entry): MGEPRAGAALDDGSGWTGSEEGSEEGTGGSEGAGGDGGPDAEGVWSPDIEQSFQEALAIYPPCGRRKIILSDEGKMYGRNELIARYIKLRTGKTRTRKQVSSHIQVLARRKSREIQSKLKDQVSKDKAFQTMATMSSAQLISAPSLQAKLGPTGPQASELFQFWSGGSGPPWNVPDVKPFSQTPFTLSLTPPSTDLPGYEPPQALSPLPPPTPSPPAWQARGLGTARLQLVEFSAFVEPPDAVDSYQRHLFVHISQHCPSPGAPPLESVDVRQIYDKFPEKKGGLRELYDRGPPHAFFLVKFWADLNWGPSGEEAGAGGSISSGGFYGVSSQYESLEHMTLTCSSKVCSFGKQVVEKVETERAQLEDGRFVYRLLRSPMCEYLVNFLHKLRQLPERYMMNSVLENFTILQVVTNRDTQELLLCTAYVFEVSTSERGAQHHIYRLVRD
Description: as §1, §2, §3, §4, §5

TEAD3 = TEAD3 (Homo sapiens, UniProt Q99594); assay: TEAD thermal shift assay (TSA); type: binding
Chain of TEAD3 (Q99594 whole entry): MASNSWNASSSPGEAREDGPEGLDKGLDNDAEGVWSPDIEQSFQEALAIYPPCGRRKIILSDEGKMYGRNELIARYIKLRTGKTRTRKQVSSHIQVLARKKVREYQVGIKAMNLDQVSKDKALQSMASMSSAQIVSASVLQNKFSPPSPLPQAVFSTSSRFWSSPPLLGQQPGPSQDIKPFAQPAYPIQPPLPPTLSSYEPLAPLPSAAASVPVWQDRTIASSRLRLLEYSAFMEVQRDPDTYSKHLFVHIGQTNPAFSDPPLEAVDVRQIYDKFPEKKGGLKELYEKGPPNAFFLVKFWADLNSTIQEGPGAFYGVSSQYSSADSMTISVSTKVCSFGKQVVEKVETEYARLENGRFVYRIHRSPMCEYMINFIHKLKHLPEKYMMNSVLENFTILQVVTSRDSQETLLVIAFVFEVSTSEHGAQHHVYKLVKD
Description: as §1, §2, §3, §4, §5

TEAD4 = TEAD4 (Homo sapiens, UniProt Q15561); assay: TEAD thermal shift assay (TSA); type: binding
Chain of TEAD4 (Q15561 whole entry): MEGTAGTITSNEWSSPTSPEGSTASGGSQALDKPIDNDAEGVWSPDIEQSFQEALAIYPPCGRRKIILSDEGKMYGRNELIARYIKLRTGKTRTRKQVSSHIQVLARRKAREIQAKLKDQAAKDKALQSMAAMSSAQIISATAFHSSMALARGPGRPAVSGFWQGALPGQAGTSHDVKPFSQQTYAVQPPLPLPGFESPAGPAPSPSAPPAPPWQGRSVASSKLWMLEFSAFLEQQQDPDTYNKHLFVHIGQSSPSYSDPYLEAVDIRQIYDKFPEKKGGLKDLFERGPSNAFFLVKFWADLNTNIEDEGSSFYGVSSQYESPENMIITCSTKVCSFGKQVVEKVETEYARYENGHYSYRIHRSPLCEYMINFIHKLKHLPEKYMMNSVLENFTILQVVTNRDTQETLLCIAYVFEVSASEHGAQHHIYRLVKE
Description: as §1, §2, §3, §4, §5

NCI-H28 cells = assay: Proliferation and cell viability assay, Cell Titer One; type: cell-based; conditions: Homo sapiens, NCI-H28, 144 h; Cell Titer One assay, non-responder, 6 days
Experimental: Cell proliferation of a TEAD dependent NF2-null mesothelioma cell line, NCI-H226 was assayed using two different protocols. Results were confirmed in two different TEAD-non-dependent lung cancer cell lines, H23 and H28, were used as non-responsive controls, as indicated:
b) Cell Titer One (Promega, #G3582). The effect of the TEAD inhibitors disclosed herein on cell proliferation was also determined using the Promega Substrate Cell Titer Aqueous One Solution Reagent. The TEAD inhibitors were evaluated for the effects on cell proliferation responder (H226) and non-responder negative control cancer cell lines (CAMA1, H28), as well as non-transformed normal human cells (HUVEC, NHDF). Dissociated cells were resuspend in media (depending on cell line, either in DMEM, RPMI, or EMEM all with 10% FBS, with gentamicin as an antibiotic). Cells were seeded at 100 μL/well at 750 cells per well in 96-well plates and allowed to settle and attach. After an incubation of 24 hrs (37° C., 5% CO2, humidified incubator), 100 μL of test compound-containing media was added. A dilution series of 2000× concentrated stock of test compounds was prepared in DMSO, for final concentrations from 0.1 to 10,000 nM. After addition of test compound-containing media, cells were incubated for 6 days at 37° C., 5% CO2, humidified incubators). […] The OD was measured using Vmax [Molecular Devices] spectrophotometer plate reader. […]

MSTO-211H xenograft = assay: Mouse xenograft MSTO-211H tumors compared to prior art TEAD inhibitor; type: in vivo, BALB/c nude mice; conditions: 7 days of treatment, PO BID, 12.5 mg/kg Compound 5
Experimental: This study evaluated the in vivo anti-tumor efficacy of test compounds in BALB/c nude mice for treatment of MSTO-211H xenograft of lung cancer.
The MSTO-211H tumor cells were maintained in vitro in RPMI 1640 medium supplemented with 10% Fetal bovine serum and 1% Antibiotic-Antimycotic at 37° C. in an atmosphere of 5% CO2 in air. The tumor cells were routinely subcultured twice weekly by trypsin-EDTA. The cells growing in an exponential growth phase were harvested and counted for tumor inoculation.
Each mouse was inoculated subcutaneously at the right flank with MSTO-211H tumor cells (10×10^6+50% matrigel/0.2 mL) for tumor development. Test subjects received vehicle (e.g., 0.5% CMC-Na+1% Tween80) beginning on day 7 after cell inoculation. […]
The major endpoint was to determine if the tumor growth could be delayed. Tumor size was measured twice a week in two dimensions using a caliper, and the volume was expressed in mm^3 using the formula: V=0.5 a×b^2 where a and b are the long and short diameters of the tumor, respectively. […]
Summary statistics, including mean and the standard error of the mean (SEM), were calculated for the tumor volume of each group at each time point. […]
One-tailed T test was performed to compare tumor volumes between two groups. All data were analyzed using GraphPad Prism 6.0. p<0.05 was considered to be statistically significant.

[1] = Ratio of Protein to Compound 1:1
[2] = Ratio of Protein to Compound 1:3

Chain of TEAD1 (P28347 whole entry): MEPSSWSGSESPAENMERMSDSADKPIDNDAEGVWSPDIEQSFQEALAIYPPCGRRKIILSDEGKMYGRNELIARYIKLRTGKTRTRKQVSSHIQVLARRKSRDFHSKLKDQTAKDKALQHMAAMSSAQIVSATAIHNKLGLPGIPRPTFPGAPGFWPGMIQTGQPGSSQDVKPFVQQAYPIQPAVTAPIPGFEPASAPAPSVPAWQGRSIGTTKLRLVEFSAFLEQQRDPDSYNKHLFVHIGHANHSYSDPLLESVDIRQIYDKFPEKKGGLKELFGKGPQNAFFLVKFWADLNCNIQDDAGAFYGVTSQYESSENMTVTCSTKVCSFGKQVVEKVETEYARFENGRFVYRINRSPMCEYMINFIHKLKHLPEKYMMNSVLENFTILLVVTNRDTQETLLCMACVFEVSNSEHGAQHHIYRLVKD

Cn1cnc(-c2cc([C@@]3(C)CCNC3=O)ccc2Nc2ccc(C(F)(F)F)cc2)c1 (single isomer, unassigned) [Compound 5, 3-methyl-3-(3-(1-methyl-1H-imidazol-4-yl)-4-((4-(trifluoromethyl)phenyl)amino)phenyl)pyrrolidin-2-one]
TEAD1 ΔTm (TEAD1; [1]): 7 °C | TEAD1 ΔTm (TEAD1; [2]): 10 °C | TEAD2 ΔTm (TEAD2; [1]): 8.5 °C | TEAD2 ΔTm (TEAD2; [2]): 11.5 °C | TEAD3 ΔTm (TEAD3; [1]): 0 °C | TEAD3 ΔTm (TEAD3; [2]): 0 °C | TEAD4 ΔTm (TEAD4; [1]): 1.5 °C | TEAD4 ΔTm (TEAD4; [2]): 7 °C | IC50 (NCI-H28 cells): > 1 µM | change in tumor volume (in words) (MSTO-211H xenograft): tumor reduction was observed
